In patent publication US12612403B2, “Nitrogen-containing heterocyclic derivative inhibitor, and preparation method therefor and use thereof” (SHANGHAI HANSOH BIOMEDICAL CO., LTD., priority 2024, dated 2026):

How the values were obtained:
PCSK9 protein = molecular target: T1, PCSK9 protein (Homo sapiens, UniProt Q8NBP7); test: Binding ability to PCSK9 protein (HTRF); details: PCSK9-His, Alexa Fluor 647 probe compound
T1 construct: purchased Sino biology (Sino Biological) 29698-H08H
Experimental: 1. Experimental objective: To detect the action of compounds to bind PCSK9 protein by an HTRF method.
3. Experimental data processing method: Four-parameter log(inhibitor) vs. response—Variable slope (four parameters) in XLit was used to perform non-linear fitting of the compound concentration and the corresponding inhibition rate, and IC50 was calculated.

[1] = system: PCSK9 secreted by HepG2 cells; test: Effect on the concentration of PCSK9 secreted by HepG2 cells (ELISA); assay type: cell-based; details: Homo sapiens, 48 hours, PCSK9 in culture medium by ELISA
In short: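 HepG2 cells treated with compound for 48 h at 37° C., 5% CO2. Secreted PCSK9 in medium quantified by sandwich ELISA (HRP detection, OD 450 nm) against a 0–10 ng/mL standard curve. Inhibition relative to control; IC50 fitted from concentration–inhibition data.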

[2] = system: hyperlipidemia animal model of B6-hPCSK9 transgenic mice; test: In vivo pharmacodynamic study in hyperlipidemia model of B6-hPCSK9 transgenic mice (LDL-C, TC, plasma PCSK9); set-up: species or system B6-hPCSK9 transgenic C57 mice; details: PO administration, 10 mpk, Day 14, B6-hPCSK9 transgenic mice on high-fat feed, normalized to vehicle group
Experimental: 1. Experimental objective: The compounds of the present disclosure were evaluated for in vivo pharmacodynamics in a hyperlipidemia animal model of B6-hPCSK9 transgenic mice.
2.1 Animals: B6-hPCSK9 transgenic C57 mice, 6-8 weeks old, male, purchased from Jiangsu GemPharmatech Co., Ltd.
2.2 Animal model: After delivery to a barrier system, the animals were given one week for acclimatization and began to feed on the high-fat feed. The body weight and feed weight were weighed once a week, and the body weight and food intake thereof were recorded.
2.3 Grouping and administration • a. The animals were grouped by a random grouping method. • c. According to the grouping results, administration with the test drug was started (mode of administration: oral administration; administration volume: 10 mL/kg; frequency of administration: once/day or single administration; administration cycle: 21 days; vehicle: 10% Solutol HS 15/90% Saline). Test drug: Compounds of the present disclosure, made in house. • d. After the test drug was administered, the body weight and feed weight were weighed twice a week and blood was taken once a week. • e. The data was processed with software such as Excel. […] PCSK9 in plasma was detected by ELISA.

T1 sequence (Q8NBP7 153-692): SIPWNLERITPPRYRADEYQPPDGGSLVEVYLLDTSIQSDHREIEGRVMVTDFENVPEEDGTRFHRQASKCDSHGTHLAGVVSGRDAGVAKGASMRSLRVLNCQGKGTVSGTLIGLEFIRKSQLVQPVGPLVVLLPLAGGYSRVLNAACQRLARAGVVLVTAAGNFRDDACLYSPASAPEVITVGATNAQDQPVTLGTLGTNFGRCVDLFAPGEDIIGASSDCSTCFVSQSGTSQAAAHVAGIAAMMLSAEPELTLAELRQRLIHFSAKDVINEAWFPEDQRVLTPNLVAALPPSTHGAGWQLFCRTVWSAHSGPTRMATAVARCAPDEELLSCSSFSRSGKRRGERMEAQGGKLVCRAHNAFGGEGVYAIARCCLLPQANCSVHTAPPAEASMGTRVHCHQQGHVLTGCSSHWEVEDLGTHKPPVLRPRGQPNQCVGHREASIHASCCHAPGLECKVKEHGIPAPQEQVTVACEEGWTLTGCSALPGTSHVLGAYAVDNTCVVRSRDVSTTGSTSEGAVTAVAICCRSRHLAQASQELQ

O=c1nc(O)ccn1-c1ccc(N[C@H]2CC[C@H](Nc3nc4cc(C(F)(F)F)ccn4n3)C2)nc1 [Example 78, 4-hydroxy-1-(6-(((1S,3S)-3-((7-(trifluoromethyl)-[1,2,4]triazolo[1,5-a]pyridin-2-yl)amino)cyclopentyl)amino)pyridin-3-yl)pyrimidin-2(1H)-one]
IC50 (PCSK9 protein): 10.1 nM
IC50 [1]: 33100 nM
LDL-C change vs vehicle (%), Day 14 [2]: −37.98%

O=C1c2ncccc2CN1c1cnc(N[C@H]2CC[C@H](Nc3nc4cc(OC(F)F)ccn4n3)C2)c(F)c1 [Example 151]
IC50 (PCSK9 protein): 8.1 nM
IC50 [1]: 12700 nM
LDL-C change vs vehicle (%), Day 14 [2]: −31.09%

O=c1nc(O)ccn1-c1cnc(N[C@H]2CC[C@H](Nc3nc4cc(C(F)(F)F)ccn4n3)C2)c(F)c1 [Example 183]
IC50 (PCSK9 protein): 8.8 nM
IC50 [1]: 4800 nM
LDL-C change vs vehicle (%), Day 14 [2]: −48.90%
